Results: patent publication US10787425B2, “Thiazolidinedione derivative and use thereof” (INDUSTRY-ACADEMIC COOPERATION FOUNDATION CHOSUN UNIVERSITY, priority 2016, dated 2020)

What was measured:
[1] = molecular target: 15-PGDH (Homo sapiens (Human), UniProt P15428); test: 15-PGDH inhibitory activity (NADH at 340 nm); format: biochemical; conditions: concentration inhibiting 50% of 15-PGDH activity; purified 15-PGDH, 21 μM PGE2, 0.25 mM NAD+
Method: The 15-PGDH cDNA plasmid containing the BamHI of the pGEX-2T expression vector and EcoRI restriction enzyme sites was transfected into E. coli BL-21 LysS by using conventional methods used in the art. Then, the transfected cells were cultured in an LB medium (500 ml) containing 50 μg/ml of ampicillin at a temperature of 37° C. and at a rate of 220 rpm until the OD600 reached 0.6. Then, isopropyl beta-D-thiogalactoxide (1 mM) was added and the cells were further cultured at the temperature of 25° C. for 12 hours. The cells were then centrifuged at the gravity of 4,000 g for 30 minutes at a temperature of 4° C. to collect a cell pellet. The cell pellet was dissolved in 20 ml of cell lysis buffer (containing 1×PBS buffer (pH 7.4): 1 mM EDTA and 0.1 mM DTT) and sonicated at a temperature of 4° C. for 14×10 s. The digested cells were centrifuged at the gravity of 4,000 g for 20 minutes at a temperature of 4° C. The supernatant was then slowly loaded onto a glutathione-sepharose 4B column equilibrated at a temperature of 4° C. with cell lysis buffer [containing 1×PBS buffer (pH 7.4), 1 mM EDTA, and 0.1 mM DTT]. Washing was performed thereon by using a dissolution buffer until the OD280 reached 0.005 or less. Then, 15-PGDH was eluted from the glutathione-sepharose 4B column at room temperature for 5 minutes by using an elution buffer [containing 50 mM Tris-HCl (pH 8.0), 10 mM reduced glutathione, 1 mM EDTA, and 0.1 mM DTT). The concentration of the purified enzyme was measured, and the purification level thereof was confirmed by SDS-PAGE.
That is, the cells were treated with a solution including 50 mM Tris-HCl (pH 7.5), 0.1 mM DTT, 0.25 mM (NAD+), 10 μg of purified 15-PGDH enzyme, 21 μM PGE2. and various concentrations (0.0001 μM to 64 μM) of the derivative compound according to the present disclosure. In this case, the total volume of the solution was 2 ml. Then, the absorbance of the reaction mixture was recorded at the wavelength of 340 nm. To measure the activity of the derivative compounds according to the present disclosure, which is an inhibitor of 15-PGDH, the average value of NADH absorbance at 340 nm at various concentrations was obtained from a standard curve.

[2] = tested on: A549 cells; test: Measurement of PGE2 concentration in A549 cell medium (ELISA); format: cell-based, human; conditions: for Increment %: PGE2 concentration versus PBS control, 5 μM, 12 hours; for PGE2 concentration: inhibitor 5 μM, medium collected after 12 hours, ELISA
Method: A549 cells were subcultured in RPMI 1640 medium (containing+8% fetal bovine serum (FBS) and antibiotic-antimycotic (AA)) for one week, and then, inoculated in a 6-well plate at 2.5×10^5 cells/mL (5×10^5 cells/well) and cultured for 24 hours in a 5% CO2 incubator at a temperature of 37° C. A549 cells are adenocarcinomic human alveolar basal epithelial cells which are derived from lung tissues. When cells were grown to about 80% confluence, a 15-PGDH inhibitor in 1×PBS buffer was injected at a concentration of 5 μM. To compare the results, the same amount of 1×PBS buffer was injected into a negative control, and, the treated cells were cultured in 5% CO2 incubator. After 12 hours, the medium was collected and the collected medium was assayed to measure PGE2 concentration by using an ELISA Kit (Abcam) according to the manufacturer's instructions. The concentration may be expressed as an exact value by plotting the calibration curve by using the absorbance value after diluting the standard in the medium by concentration.

Sequence of 15-PGDH (P15428 whole entry): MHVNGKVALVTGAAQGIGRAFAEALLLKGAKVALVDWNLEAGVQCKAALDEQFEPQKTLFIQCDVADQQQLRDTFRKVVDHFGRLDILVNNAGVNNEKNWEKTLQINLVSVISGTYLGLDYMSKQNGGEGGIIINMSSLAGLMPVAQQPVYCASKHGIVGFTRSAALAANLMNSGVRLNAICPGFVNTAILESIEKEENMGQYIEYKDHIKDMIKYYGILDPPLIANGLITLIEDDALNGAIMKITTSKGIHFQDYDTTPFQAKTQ

| Structure (SMILES) | IC50 [1] [nM] | Increment % [2] [%] | PGE2 concentration [2] [pg/mL] |
| --- | --- | --- | --- |
| CCOc1cc(/C=C2\SC(=O)NC2=O)ccc1OC(=O)CCCCc1ccccc1 [Compound 60, (Z)-4-((2,4-dioxothiazolidin-5-ylidene)methyl)-2-ethoxyphenyl 5-phenylpentanoate] | 58.4 | 88.87 | 300.5549 |
| CCOc1cc(/C=C2\SC(=O)NC2=O)ccc1OC(=O)C1CC1 [Compound 46, (Z)-4-((2,4-dioxothiazolidin-5-ylidene)methyl)-2-ethoxyphenyl cyclopropanecarboxylate] | 2170 | 1.78 | 278.8555 |
| O=C(CCCCC1CCCCC1)Oc1ccc(/C=C2\SC(=O)NC2=O)cc1Cl [Compound 10, (Z)-2-chloro-4-((2,4-dioxothiazolidin-5-ylidene)methyl)phenyl 5-cyclohexylpentanoate] | 31.7 | 89.99 | 520.1337 |
| O=C(CC1CCCCC1)Oc1cccc(/C=C2\SC(=O)NC2=O)c1Cl [Compound 82, (Z)-2-chloro-3-((2,4-dioxothiazolidin-5-ylidene)methyl)phenyl 2-cyclohexylacetate] | 32.7 | 189.97 | 610.1325 |
| COc1cc(/C=C2\SC(=O)NC2=O)ccc1OC(=O)Cc1ccccc1 [Compound 42, (Z)-4-((2,4-dioxothiazolidin-5-ylidene)methyl)-2-methoxyphenyl 2-phenylacetate] | 42.2 | 97.64 | 400.7345 |
| O=C(Cc1ccccc1)Oc1cccc(/C=C2\SC(=O)NC2=O)c1Cl [Compound 87, (Z)-2-chloro-3-((2,4-dioxothiazolidin-5-ylidene)methyl)phenyl 2-phenylacetate] | 105 | 89.77 | 399.2994 |
| O=C(CC1CCCC1)Oc1ccc(/C=C2\SC(=O)NC2=O)cc1Br [Compound 19, (Z)-2-bromo-4-((2,4-dioxothiazolidin-5-ylidene)methyl)phenyl 2-cyclopentylacetate] | 19.8 | −8.11 | 232.5151 |
| O=C1NC(=O)/C(=C/c2ccc(OC(=O)C3CCCC3)cc2)S1 [Compound 63, (Z)-4-((2,4-dioxothiazolidin-5-ylidene)methyl)phenyl cyclopentanecarboxylate] | 179 | 49.33 | 237.6336 |
| O=C1NC(=O)/C(=C/c2ccc(OC(=O)C3CCC3)c(Cl)c2)S1 [Compound 2, (Z)-2-chloro-4-((2,4-dioxothiazolidin-5-ylidene)methyl)phenyl cyclobutanecarboxylate] | 782 | 9.96 | 301.0364 |
| CCOc1cc(/C=C2\SC(=O)NC2=O)ccc1OC(=O)Cc1ccccc1 [Compound 57, (Z)-4-((2,4-dioxothiazolidin-5-ylidene)methyl)-2-ethoxyphenyl 2-phenylacetate] | 118 | −17.46 | 131.3485 |
| COc1cc(/C=C2\SC(=O)NC2=O)ccc1OC(=O)CC1CCCC1 [Compound 34, (Z)-4-((2,4-dioxothiazolidin-5-ylidene)methyl)-2-methoxyphenyl 2-cyclopentylacetate] | 60.2 | −70.77 | 57.64 |
| O=C(CCCC1CCCCC1)Oc1ccc(/C=C2\SC(=O)NC2=O)cc1 [Compound 69, (Z)-4-((2,4-dioxothiazolidin-5-ylidene)methyl)phenyl 4-cyclohexylbutanoate] | 26.1 | 134.45 | 302.8477 |
| O=C(CCCc1ccccc1)Oc1ccc(/C=C2\SC(=O)NC2=O)cc1Br [Compound 29, (Z)-2-bromo-4-((2,4-dioxothiazolidin-5-ylidene)methyl)phenyl 4-phenylbutanoate] | 14.5 | 367.81 | 922.5414 |
| O=C(CCCc1ccccc1)Oc1ccc(/C=C2\SC(=O)NC2=O)cc1 [Compound 74, (Z)-4-((2,4-dioxothiazolidin-5-ylidene)methyl)phenyl 4-phenylbutanoate] | 50.7 | 27.71 | 164.9677 |
| COc1cc(/C=C2\SC(=O)NC2=O)ccc1OC(=O)C1CCCC1 [Compound 33, (Z)-4-((2,4-dioxothiazolidin-5-ylidene)methyl)-2-methoxyphenyl cyclopentanecarboxylate] | 494 | −2.32 | 192.6292 |
| O=C(CCCCc1ccccc1)Oc1ccc(/C=C2\SC(=O)NC2=O)c(Cl)c1 [Compound 105, (Z)-3-chloro-4-((2,4-dioxothiazolidin-5-ylidene)methyl)phenyl 5-phenylpentanoate] | 130 | 89.4598 | 211.5461 |
| O=C1NC(=O)/C(=C/c2ccc(OC(=O)C3CCCC3)c(Br)c2)S1 [Compound 18, (Z)-2-bromo-4-((2,4-dioxothiazolidin-5-ylidene)methyl)phenyl cyclopentanecarboxylate] | 50 | −21.7 | 198.1274 |
| COc1cc(/C=C2\SC(=O)NC2=O)ccc1OC(=O)CC1CCCCC1 [Compound 37, (Z)-4-((2,4-dioxothiazolidin-5-ylidene)methyl)-2-methoxyphenyl 2-cyclohexylacetate] | 27.8 | 88.85 | 382.9119 |
| O=C(CCc1ccccc1)Oc1ccc(/C=C2\SC(=O)NC2=O)cc1Br [Compound 28, (Z)-2-bromo-4-((2,4-dioxothiazolidin-5-ylidene)methyl)phenyl 3-phenylpropanoate] | 28.4 | 190.32 | 572.5235 |
| O=C1NC(=O)/C(=C/c2ccc(OC(=O)C3CCCC3)cc2Cl)S1 [Compound 93, (Z)-3-chloro-4-((2,4-dioxothiazolidin-5-ylidene)methyl)phenyl cyclopentanecarboxylate] | 71 | 2.9785 | 114.9832 |
| O=C(O)c1ccccc1.O=C1NC(=O)/C(=C/c2ccc(OC(=O)c3ccccc3)cc2Cl)S1 [Compound 101, (Z)-3-chloro-4-((2,4-dioxothiazolidin-5-ylidene)methyl)phenyl benzoate] | 45.1 | 79.4871 | 200.4108 |
| O=C(CCCC1CCCCC1)Oc1ccc(/C=C2\SC(=O)NC2=O)cc1Cl [Compound 9, (Z)-2-chloro-4-((2,4-dioxothiazolidin-5-ylidene)methyl)phenyl 4-cyclohexylbutanoate] | 20.2 | 189.34 | 792.1232 |
| O=C1NC(=O)/C(=C/c2ccc(OC(=O)C3CCCCC3)cc2Cl)S1 [Compound 96, (Z)-3-chloro-4-((2,4-dioxothiazolidin-5-ylidene)methyl)phenyl cyclohexanecarboxylate] | 26.8 | 8.8874 | 121.5809 |
| CCOc1cc(/C=C2\SC(=O)NC2=O)ccc1OC(=O)C1CCC1 [Compound 47, (Z)-4-((2,4-dioxothiazolidin-5-ylidene)methyl)-2-ethoxyphenyl cyclobutanecarboxylate] | 1620 | −32.43 | 185.1274 |
| O=C(CCCC1CCCCC1)Oc1cccc(/C=C2\SC(=O)NC2=O)c1Cl [Compound 84, (Z)-2-chloro-3-((2,4-dioxothiazolidin-5-ylidene)methyl)phenyl 4-cyclohexylbutanoate] | 22.5 | 16.67 | 245.488 |
